According to publication PMC8632988, “Inhibition of SYK and cSrc kinases can protect bone and cartilage in preclinical models of osteoarthritis and rheumatoid arthritis” (Scientific Reports, 2021):
“And” between values parts separate entries of the source, which are not always exact repeats. Equal entries are not always repeated.

System: DBA/1 mice, CIA model
Assay: Collagen-induced arthritis model in mice
Assay type: in vivo, mouse
Set-up: Total AUC Sum (d1-11) / Total AUC Sum (d1-11), Mean: scale not given here
Settings: MTX 1.5 mg/kg PO; for Summed Prophylactic (Non-Enrollment) Paw Score / Total AUC Sum (d1-11), Prophylactic (Non-Enrollment) Paw Score: QD
Description: Collagen-induced arthritis (CIA) model was performed at Bolder BioPATH, USA. Study design and animal usage was approved by Bolder BioPATH’s Institutional Animal Care and Use Committee. CIA was induced in 6–7 week old male DBA/1 mice with body weight of 15–26 g (Harlan, Inc) by intradermal injection of Freund’s Complete Adjuvant (Difco) containing bovine type II collagen (Bolder BioPATH) on day 0 and again on day 21 according to the standard protocol. […] After that mice were randomized into six groups: a control group of four, vehicle group and four treatment groups of ten mice each. […] Each paw was scored daily for inflammation. Therapeutic and prophylactic paws were considered. At study termination mice were euthanized by CO2 inhalation followed by cervical dislocation. Fore paws, hind paws, and knees were removed for microscopy.
Mice were weighed on arthritis days 1, 3, 5, 7, 9, and 11 (prior to necropsy). Daily clinical scores were given for each of the paws (right front, left front, right rear, left rear) on days 1–11 using the following criteria:
After 1–2 days in fixative and 4–5 days in 5% formic acid for decalcification, tissues were trimmed, processed for paraffin embedding, sectioned at 8 µm and stained with toluidine blue. Hind paws and knees were embedded and sectioned in the frontal plane. Two joints from each animal were processed for histopathology evaluation. The joints were then scored by two independent readers as indicated below. When scoring, severity of changes as well as number of individual joints affected were considered. When only 1–3 joints of the paws or ankles out of a possibility of numerous metacarpal/metatarsal/digit or tarsal/tibiotarsal joints were affected, an arbitrary assignment of a maximum score of 1, 2 or 3 for parameters below was given depending on severity of changes. If more than 3 joints were involved, the criteria below were applied to the most severely affected/majority of joints.

[1] = all joints, QD (Group 3), group mean
[2] = all joints, QD (Group 3), individual animals

CN(Cc1cnc2nc(N)nc(N)c2n1)c1ccc(C(=O)N[C@@H](CCC(=O)O)C(=O)O)cc1 [MTX, methotrexate, reference compound]
Summed Prophylactic (Non-Enrollment) Paw Score (Day 11, group mean): 7.40
Summed Prophylactic (Non-Enrollment) Paw Score (Day 11, individual animals): 6 and 5 and 4 and 14 and 10 and 8
Total AUC Sum (d1-11), Prophylactic (Non-Enrollment) Paw Score (group mean): 52.20
Total AUC Sum (d1-11), Prophylactic (Non-Enrollment) Paw Score (individual animals): 41.0 and 33.5 and 35.0 and 16.0 and 80.0 and 101.0 and 88.0 and 58.0 and 34.5
% inhibition, Bone Resorption score (all joints, QD (Group 3)): 8%
% inhibition, Cartilage Damage score (all joints, QD (Group 3)): 3%
% inhibition, Inflammation score (all joints, QD (Group 3)): 4%
% inhibition, Pannus score (all joints, QD (Group 3)): 8%
% inhibition, Periosteal Bone Formation score (all joints, QD (Group 3)): 3%
% inhibition, Periosteal Bone Width (all joints, QD (Group 3)): 6%
% inhibition, Summed Scores (all joints, QD (Group 3)): 5%
Histopathology Scores Bone Resorption, Mean [1]: 1.58
Histopathology Scores Cartilage Damage, Mean [1]: 3.21
Histopathology Scores Inflammation, Mean [1]: 3.55
Histopathology Scores Pannus, Mean [1]: 1.58
Histopathology Scores Periosteal Bone Formation, Mean [1]: 1.10
Histopathology Scores Summed Scores, Mean [1]: 11.03
Periosteal Bone Width (40*25x measure), Mean [1]: 92.67 μm
Histopathology Scores Bone Resorption [2]: 1.17 and 1.67 and 1.08 and 1.00 and 2.33 and 1.58 and 1.25 and 1.83 and 2.25
Histopathology Scores Cartilage Damage [2]: 1.92 and 3.00 and 1.67 and 2.17 and 4.17 and 4.33 and 3.83 and 3.17 and 4.83
Histopathology Scores Inflammation [2]: 2.33 and 3.08 and 2.50 and 2.25 and 4.67 and 4.83 and 4.00 and 3.33 and 3.83
Histopathology Scores Pannus [2]: 1.17 and 1.67 and 1.08 and 1.00 and 2.33 and 1.58 and 1.25 and 1.83 and 2.25
Histopathology Scores Periosteal Bone Formation [2]: 0.83 and 1.33 and 0.50 and 1.17 and 1.50
Histopathology Scores Summed Scores [2]: 7.42 and 10.75 and 6.83 and 7.25 and 13.33 and 15.33 and 12.17 and 9.67 and 12.00 and 15.50
Periosteal Bone Width (40*25x measure) [2]: 80.00 μm and 106.67 μm and 40.00 μm and 140.00 μm and 86.67 μm and 60.00 μm and 146.67 μm
% inhibition to Vehicle, Total AUC Sum (d1-11) (therapeutic/enrollment paw score, QD (Group 3)): 3%
Total AUC Sum (d1-11), Mean (therapeutic/enrollment paw score, QD (Group 3), group mean): 61.65
Total AUC Sum (d1-11) (therapeutic/enrollment paw score, QD (Group 3), individual animals): 43 and 36 and 65 and 75 and 130 and 82 and 38 and 78
% inhibition to Vehicle, paw score Day 1 (therapeutic/enrollment paws, Day 1, QD (Group 3)): 0%
Summed Therapeutic (Enrollment) Paw Score Day 1, Mean (therapeutic/enrollment paws, Day 1, QD (Group 3), group mean): 3.20
Summed Therapeutic (Enrollment) Paw Score Day 1 (therapeutic/enrollment paws, Day 1, QD (Group 3), individual animals): 2 and 4 and 6
% inhibition to Vehicle, paw score Day 2 (therapeutic/enrollment paws, Day 2, QD (Group 3)): 9%
Summed Therapeutic (Enrollment) Paw Score Day 2, Mean (therapeutic/enrollment paws, Day 2, QD (Group 3), group mean): 4.30
Summed Therapeutic (Enrollment) Paw Score Day 2 (therapeutic/enrollment paws, Day 2, QD (Group 3), individual animals): 3 and 2 and 5 and 6 and 8
% inhibition to Vehicle, paw score Day 3 (therapeutic/enrollment paws, Day 3, QD (Group 3)): 12%
Summed Therapeutic (Enrollment) Paw Score Day 3, Mean (therapeutic/enrollment paws, Day 3, QD (Group 3), group mean): 5.20
Summed Therapeutic (Enrollment) Paw Score Day 3 (therapeutic/enrollment paws, Day 3, QD (Group 3), individual animals): 4 and 3 and 5 and 7 and 9
% inhibition to Vehicle, paw score Day 4 (therapeutic/enrollment paws, Day 4, QD (Group 3)): −2%
Summed Therapeutic (Enrollment) Paw Score Day 4, Mean (therapeutic/enrollment paws, Day 4, QD (Group 3), group mean): 6.30
Summed Therapeutic (Enrollment) Paw Score Day 4 (therapeutic/enrollment paws, Day 4, QD (Group 3), individual animals): 4 and 3 and 7 and 8 and 12 and 9
% inhibition to Vehicle, paw score Day 5 (therapeutic/enrollment paws, Day 5, QD (Group 3)): −2%
Summed Therapeutic (Enrollment) Paw Score Day 5, Mean (therapeutic/enrollment paws, Day 5, QD (Group 3), group mean): 6.70
Summed Therapeutic (Enrollment) Paw Score Day 5 (therapeutic/enrollment paws, Day 5, QD (Group 3), individual animals): 4 and 7 and 8 and 15 and 9
% inhibition to Vehicle, paw score Day 6 (therapeutic/enrollment paws, Day 6, QD (Group 3)): −2%
Summed Therapeutic (Enrollment) Paw Score Day 6, Mean (therapeutic/enrollment paws, Day 6, QD (Group 3), group mean): 6.70
Summed Therapeutic (Enrollment) Paw Score Day 6 (therapeutic/enrollment paws, Day 6, QD (Group 3), individual animals): 4 and 7 and 8 and 15 and 9
% inhibition to Vehicle, paw score Day 7 (therapeutic/enrollment paws, Day 7, QD (Group 3)): 0%
Summed Therapeutic (Enrollment) Paw Score Day 7, Mean (therapeutic/enrollment paws, Day 7, QD (Group 3), group mean): 6.80
Summed Therapeutic (Enrollment) Paw Score Day 7 (therapeutic/enrollment paws, Day 7, QD (Group 3), individual animals): 5 and 4 and 7 and 8 and 15 and 9
% inhibition to Vehicle, paw score Day 8 (therapeutic/enrollment paws, Day 8, QD (Group 3)): 3%
Summed Therapeutic (Enrollment) Paw Score Day 8, Mean (therapeutic/enrollment paws, Day 8, QD (Group 3), group mean): 6.80
Summed Therapeutic (Enrollment) Paw Score Day 8 (therapeutic/enrollment paws, Day 8, QD (Group 3), individual animals): 5 and 4 and 7 and 8 and 15 and 9
% inhibition to Vehicle, paw score Day 9 (therapeutic/enrollment paws, Day 9, QD (Group 3)): 5%
Summed Therapeutic (Enrollment) Paw Score Day 9, Mean (therapeutic/enrollment paws, Day 9, QD (Group 3), group mean): 6.90
Summed Therapeutic (Enrollment) Paw Score Day 9 (therapeutic/enrollment paws, Day 9, QD (Group 3), individual animals): 5 and 4 and 7 and 8 and 15 and 9
% inhibition to Vehicle, paw score Day 10 (therapeutic/enrollment paws, Day 10, QD (Group 3)): 7%
Summed Therapeutic (Enrollment) Paw Score Day 10, Mean (therapeutic/enrollment paws, Day 10, QD (Group 3), group mean): 6.90
Summed Therapeutic (Enrollment) Paw Score Day 10 (therapeutic/enrollment paws, Day 10, QD (Group 3), individual animals): 5 and 4 and 7 and 8 and 15 and 9
% inhibition to Vehicle, paw score Day 11 (therapeutic/enrollment paws, Day 11, QD (Group 3)): 7%
Summed Therapeutic (Enrollment) Paw Score Day 11, Mean (therapeutic/enrollment paws, Day 11, QD (Group 3), group mean): 6.90
Summed Therapeutic (Enrollment) Paw Score Day 11 (therapeutic/enrollment paws, Day 11, QD (Group 3), individual animals): 5 and 4 and 7 and 8 and 15 and 9
